# From paper PMC6349357, “Computational and experimental analysis of bioactive peptide linear motifs in the integrin adhesome” (PLoS ONE, 2019)
# “Also recorded” adds a separate entry of the source.
# Legend:
# vinculin = target: T1, vinculin (Homo sapiens, UniProt P18206); test: Surface plasmon resonance, peptides injected over immobilised vinculin; type: binding; settings: SPR, CM5 chip, serial peptide injections at 1 mM; rank order
# T1 sequence (P18206 1-1066 isoform P18206-2): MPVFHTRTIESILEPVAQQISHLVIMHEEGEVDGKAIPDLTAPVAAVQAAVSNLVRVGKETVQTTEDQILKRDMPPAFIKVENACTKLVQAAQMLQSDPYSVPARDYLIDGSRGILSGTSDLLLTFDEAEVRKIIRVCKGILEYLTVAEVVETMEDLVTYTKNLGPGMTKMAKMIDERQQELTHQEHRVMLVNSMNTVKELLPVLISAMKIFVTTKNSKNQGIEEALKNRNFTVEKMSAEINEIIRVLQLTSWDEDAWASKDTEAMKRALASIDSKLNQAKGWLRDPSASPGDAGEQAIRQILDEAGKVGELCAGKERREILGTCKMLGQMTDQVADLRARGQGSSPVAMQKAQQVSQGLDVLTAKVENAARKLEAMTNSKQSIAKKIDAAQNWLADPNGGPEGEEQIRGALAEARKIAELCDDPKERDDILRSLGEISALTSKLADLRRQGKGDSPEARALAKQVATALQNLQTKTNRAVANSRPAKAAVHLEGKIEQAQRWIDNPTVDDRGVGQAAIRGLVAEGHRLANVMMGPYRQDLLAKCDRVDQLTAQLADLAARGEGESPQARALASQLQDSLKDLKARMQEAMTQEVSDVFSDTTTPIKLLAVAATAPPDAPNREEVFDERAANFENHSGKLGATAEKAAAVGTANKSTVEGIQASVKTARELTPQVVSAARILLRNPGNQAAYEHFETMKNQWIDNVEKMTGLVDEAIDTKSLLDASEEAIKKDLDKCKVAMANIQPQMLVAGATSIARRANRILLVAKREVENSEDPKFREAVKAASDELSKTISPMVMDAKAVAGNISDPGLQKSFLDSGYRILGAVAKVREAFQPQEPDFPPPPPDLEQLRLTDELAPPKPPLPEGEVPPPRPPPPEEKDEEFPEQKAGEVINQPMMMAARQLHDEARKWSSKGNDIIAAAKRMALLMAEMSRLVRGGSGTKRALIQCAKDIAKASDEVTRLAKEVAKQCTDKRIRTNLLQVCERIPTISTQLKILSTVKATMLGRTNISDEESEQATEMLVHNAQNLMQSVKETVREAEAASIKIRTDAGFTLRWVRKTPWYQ
# Experimental: The SPR experiments were performed using a Biacore T200 system (GE Healthcare), and Series S CM5 or SA chips with 4 flow cells each.
# Lyophilized vinculin was dissolved in flow buffer to a concentration of 1 mg/ml and covalently coupled onto the carboxymethylated dextran matrix of CM5 sensor chips using standard amine coupling. The flow buffer contained 10 mM HEPES, 150 mM NaCl, 3 mM EDTA, 0.05% surfactant P20. The chip was activated with an injection of 70 μl of a mixture of 0.05 M EDC and 0.2 M NHS, followed by the injection of approximately 70 μl of 10 μg/ml vinculin in 10 mM sodium acetate, pH 5.0 in one flow cell to yield a response of 7200 RU. Remaining reactive groups in the channel were blocked with an injection of 100 μl ethanolamine. Binding experiments were performed by injecting peptides for 120 s at a flow rate of 20 μl/min, at a concentration of 1 mM in the flow buffer over the chip surface to monitor association kinetics, followed by buffer flow for 120 s to measure dissociation kinetics. Between experiments, the surface was regenerated by injecting a 60 second pulse of 10 mM glycine pH 2.
# [1] = tested on: tyrosine phosphorylation in platelets; test: Phosphotyrosine western blot (4G10) of platelets treated with peptide; type: cell-based, human (healthy volunteers); parameters: key to Phospho: R: in resting platelets; A: after TRAP activation; settings: phosphorylation changes associated with peptide treatment; pal 20 μM, tat 50 μM, TRAP 4 μM
# Experimental: A platelet concentration of 3x10^5 /μl was used when performing standard aggregations and a concentration of 1x10^6 /μl was used for sample preparation for western blot analysis. The extent of platelet aggregation was measured by quantifying the optical density of the samples using the Bio-Data PAP-8 aggregometer (platelet aggregation profiler, Horsham, PA, USA). A temperature of 37°C was maintained and samples were stirred using magnets spinning at 1100 rpm. 200 μl of washed platelets was added to each aggregation tube. Different volumes of buffer, peptide and TRAP were added to achieve the desired concentrations. Peptide/buffer was added to each well after two minutes. TRAP, with a final concentration depending on the experiment, was added 6 minutes later and data was collected for an additional 7 minutes.
# After the aggregation step, tubes were immediately placed on ice. 27 μl of lysis buffer was then added and the tube was vortexed vigorously. Lysates were left on ice for one hour and vortexed frequently. Proteins were then centrifuged at 14,000 rcf for 10 minutes to remove debris. Samples were then mixed with 2x sample buffer. 50 μl each sample was added to 50 μl of sample buffer. The protein was then denatured by heating to 95°C for 5 minutes. 10 μl of lysate was kept for protein quantification. All samples and lysates were frozen at -80°C.
# The Bradford assay was then performed on the lysates to determine protein concentration. Protein concentrations were measured using the Bio-Rad DC Protein Assay. A calibration was created using samples containing a known concentration of bovine serum albumin. These were prepared in advance by sequential dilutions with final concentrations of 1.5mg/ml, 1mg/ml, 0.8mg/ml, 0.6mg/ml, 0.4mg/ml, 0.2mg/ml, 0mg/ml. Samples were then dispensed into a 96 well plate and the Bio-Rad DC reagents were added as described in the protocol. Samples were left to rest for 15 minutes and were then read using 690 0.15 mode on the Wallac plate reader. A standard curve was calculated from the standard samples of known concentration and the y = ax+b equation was used to determine the concentration of the other samples.
# Sodium Dodecyl Sulfate Polyacrylamide Gel Electrophoresis (SDS-PAGE) was performed to separate proteins by molecular weight. Polyacrylamide gels were prepared (see Reagents section). Samples or molecular markers were loaded in volumes to give 20 μg of protein. The gels were then run for approximately 80 minutes or until the samples reached the end of the gel. The proteins were then transferred to polyvinylidene difluoride (PVDF) membranes using a Bio-Rad Wet Blot Transfer Cell apparatus. During the transfer the membranes were submerged in 1x transfer buffer (10% 10x transfer buffer, 70% deionised water and 20% methanol). Transfer was performed either overnight at 40 volts at 4°C, or at 100 volts for 1 hour cooled with an ice block. After the transfer the membranes were blocked for 1 hour using 3% bovine albumin serum (BSA) dissolved in TBS-T. Membranes were incubated with 4G10 antibody with a 1:1000 dilution. Unbound primary antibody was washed off with TBS-T three times for 5 minutes each. Membranes were then incubated with anti-mouse IgG secondary antibody (Millipore) with a dilution of 1:30,000. Membranes were submerged in chemiluminescence ECL solution (Thermo Scientific). They were then measured using the western blot developer UVP. One image was taken every 80 seconds for 40 minutes. Numeric data was extracted from selected blots using ImageJ.
substance,measurement,setting,value
tat-WEQLLTTIARTINEVENQI-(NH2) [tat-ACTN1_VBS],Relative binding affinity to immobilised vinculin,vinculin,tat-ACTN1_VBS > TLN1_VBS-tat > ACTN1_VBS-tat > ACTN1_VBS; also recorded: bound with relatively higher affinity
same,Phospho,[1],R
